According to US9260429B2, “Pyrido[3,4-B]indoles and methods of use” (Medivation Technologies, Inc., priority 2008, dated 2016):

Legend:
[1] = target: T1, human recombinant histamine H2 receptor (Homo sapiens, UniProt P25021); experiment: Histamine H2 radioligand binding ([125I]Aminopotentidine); details: 1 μM; inhibition of specific [125I]Aminopotentidine binding; read-out: Binding data (Percentage Inhibition) Histamine Binding (1 μM) H2
T1 construct: expressed in transfected cells; host or cells: CHO-K1 cells
T1 sequence (P25021 whole entry): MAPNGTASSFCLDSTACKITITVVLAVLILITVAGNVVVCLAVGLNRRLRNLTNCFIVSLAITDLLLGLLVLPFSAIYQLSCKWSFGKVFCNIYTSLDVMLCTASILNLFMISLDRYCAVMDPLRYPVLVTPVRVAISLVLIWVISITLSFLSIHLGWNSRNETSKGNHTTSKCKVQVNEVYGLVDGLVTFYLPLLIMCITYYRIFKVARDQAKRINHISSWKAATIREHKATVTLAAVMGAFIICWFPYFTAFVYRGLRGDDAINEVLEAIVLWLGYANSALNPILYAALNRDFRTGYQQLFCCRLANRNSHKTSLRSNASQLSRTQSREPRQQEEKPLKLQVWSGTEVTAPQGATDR
In short: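 Membranes of CHO-K1 cells expressing human H2 receptor incubated with 0.1 nM [125I]aminopotentidine, 120 min, 25 °C, 50 mM phosphate pH 7.4; nonspecific binding defined with 3 μM tiotidine.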

[2] = target: T2, human recombinant adrenergic α1D receptor (Homo sapiens, UniProt P25100); experiment: Adrenergic α1D radioligand binding ([3H]Prozosin); details: 1 h; read-out: Percent Inhibition of ligand binding Adrenergic (1 μM ligand conc.) α1D
T2 construct: expressed in transfected cells; host or cells: HEK-293 cells
T2 sequence (P25100 1-572): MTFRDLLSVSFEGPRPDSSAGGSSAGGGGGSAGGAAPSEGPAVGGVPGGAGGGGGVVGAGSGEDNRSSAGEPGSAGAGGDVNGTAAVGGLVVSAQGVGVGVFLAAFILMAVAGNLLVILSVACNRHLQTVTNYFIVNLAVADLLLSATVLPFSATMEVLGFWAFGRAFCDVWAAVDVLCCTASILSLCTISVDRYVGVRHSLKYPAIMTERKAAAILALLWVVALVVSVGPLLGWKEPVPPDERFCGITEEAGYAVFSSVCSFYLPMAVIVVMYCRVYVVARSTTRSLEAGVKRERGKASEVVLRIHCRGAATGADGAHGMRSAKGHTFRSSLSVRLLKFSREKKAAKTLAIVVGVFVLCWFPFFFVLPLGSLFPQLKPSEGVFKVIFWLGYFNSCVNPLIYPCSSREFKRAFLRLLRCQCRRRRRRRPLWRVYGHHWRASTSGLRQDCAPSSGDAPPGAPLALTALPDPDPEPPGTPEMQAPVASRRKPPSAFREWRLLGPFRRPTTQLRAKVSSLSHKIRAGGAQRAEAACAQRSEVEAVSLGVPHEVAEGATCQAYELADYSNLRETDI
Method: To evaluate in radioligand binding assays the activity of compounds of the invention, human recombinant adrenergic a1D receptor expressed in human embryonic kidney (HEK-293) cells (Kenny, B. A. et al. Br. J. Pharmacol. 115(6):981, 1995) in a 50 mM Tris-HCl buffer, pH 7.4, was used. Compounds of invention were incubated with 0.6 nM [^3H]Prozosin for 60 minutes at 25° C. Non-specific binding was estimated in the presence of 10 μM phentolamine. Receptor proteins were filtered and washed, the filters were then counted to determine [^3H]Prozosin specifically bound. Compounds were screened at 1 μM or lower, using 1% DMSO as vehicle. Biochemical assay results are presented as the percent inhibition of specific binding in Table 4. Adrenergic a2A

[3] = target: T3, human recombinant serotonin (5-Hydroxytryptamine) 5-HT2C receptor (Homo sapiens, UniProt P28335); experiment: Serotonin 5-HT2C radioligand binding ([3H]Mesulergine); details: for inhibition at 1 µM: 1 h, read-out: Percent Inhibition of ligand binding Serotonin (1 μM ligand concentration) 5-HT2C
T3 construct: expressed in transfected cells; host or cells: CHO-K1 cells
T3 sequence (P28335 33-458): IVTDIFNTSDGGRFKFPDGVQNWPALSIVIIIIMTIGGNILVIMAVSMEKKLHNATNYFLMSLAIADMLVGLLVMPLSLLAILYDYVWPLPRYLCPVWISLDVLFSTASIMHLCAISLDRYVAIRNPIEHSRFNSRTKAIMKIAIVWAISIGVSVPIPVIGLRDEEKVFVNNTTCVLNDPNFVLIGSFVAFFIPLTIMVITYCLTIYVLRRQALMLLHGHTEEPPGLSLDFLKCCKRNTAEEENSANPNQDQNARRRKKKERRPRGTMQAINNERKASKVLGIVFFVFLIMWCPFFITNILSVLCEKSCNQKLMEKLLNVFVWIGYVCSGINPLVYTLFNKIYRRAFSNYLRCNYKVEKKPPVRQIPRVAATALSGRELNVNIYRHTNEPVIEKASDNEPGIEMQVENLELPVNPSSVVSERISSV
Method: Compounds of the invention were incubated with 1 nM [^3H]Mesulergine for 60 minutes at 25° C. Non-specific binding was estimated in the presence of 1 μM Mianserin. Receptor proteins were filtered and washed, the filters were then counted to determine [^3H]Mesulergine specifically bound. […] Biochemical assay results are presented as the percent inhibition of specific binding in Table 5.

[4] = target: T4, human recombinant adrenergic α2B receptor (Homo sapiens, UniProt P18089); experiment: Adrenergic α2B radioligand binding ([3H]Rauwolscine); details: 1 h; read-out: Percent Inhibition of ligand binding Adrenergic (1 μM ligand conc.) α2B
T4 construct: expressed in transfected cells; host or cells: CHO-K1 cells
T4 sequence (P18089 1-450): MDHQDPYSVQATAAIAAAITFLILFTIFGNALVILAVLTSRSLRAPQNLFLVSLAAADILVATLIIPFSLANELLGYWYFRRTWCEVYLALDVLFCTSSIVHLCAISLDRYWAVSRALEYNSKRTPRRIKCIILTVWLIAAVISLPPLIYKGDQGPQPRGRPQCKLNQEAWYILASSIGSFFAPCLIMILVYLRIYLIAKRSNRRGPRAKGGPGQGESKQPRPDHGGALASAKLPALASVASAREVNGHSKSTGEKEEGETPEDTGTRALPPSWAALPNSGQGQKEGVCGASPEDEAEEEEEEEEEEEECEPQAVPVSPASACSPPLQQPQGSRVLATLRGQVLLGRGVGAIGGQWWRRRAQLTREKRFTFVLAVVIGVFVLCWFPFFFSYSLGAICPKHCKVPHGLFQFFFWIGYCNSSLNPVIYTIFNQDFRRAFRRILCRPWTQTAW
Method: To evaluate in radioligand binding assays the activity of compounds of the invention, human recombinant adrenergic α2B receptor expressed in Chinese hamster ovary (CHO-K1) cells (Uhlen S et al. Eur J. Pharmacol. 343(1):93, 1998) in a modified Tris-HCl buffer (50 mM Tris-HCl, pH 7.4, 12.5 mM MgCl2, 1 mM EDTA, 0.2% BSA) was used. Compounds of the invention were incubated with 2.5 nM [^3H]Rauwolscine for 60 minutes at 25° C. Non-specific binding was estimated in the presence of 10 μM Prozosin. Receptor proteins were filtered and washed, the filters were then counted to determine [^3H]Rauwolscine specifically bound. Compounds were screened at 1 μM or lower, using 1% DMSO as vehicle. Biochemical assay results are presented as the percent inhibition of specific binding in Table 4.

Row | Structure (SMILES) | inhibition at 1 µM [1] [%] | inhibition at 1 µM [2] [%] | inhibition at 1 µM [3] [%] | inhibition at 1 µM [4] [%] | Percent Inhibition of ligand binding Serotonin (1 μM ligand concentration) 5-HT2C ([3]; 1 μM ligand concentration) [%]
1 | Cc1ccc2c(c1)c1c(n2CCc2ccc(C)nc2)CN(C)CC1 [Compound 1, 2,3,4,9-tetrahydro-2,6-dimethyl-9-(2-(6-methylpyridin-3-yl)ethyl)-1H-pyrido[3,4-b]indole] | 5 | 65 | 25 | 99 | –
2 | Cc1ccc2c(c1)c1c(n2CCC2CCCCC2)CN(C)CC1 [Compound 2, 9-(2-cyclohexylethyl)-2,3,4,9-tetrahydro-2,6-dimethyl-1H-pyrido[3,4-b]indole] | 71 | 42 | 84 | 81 | –
3 | CN1CCc2c(n(CCc3ccc(F)cc3)c3ccc(Cl)cc23)C1 [Compound 3, 9-(4-fluorophenethyl)-6-chloro-2,3,4,9-tetrahydro-2-methyl-1H-pyrido[3,4-b]indole] | 51 | 77 | 90 | 108 | –
4 | Cc1ccc2c(c1)c1c(n2CCc2ccc(C(F)(F)F)nc2)CN(C)CC1 [Compound 5, 9-(2-(6-(trifluoromethyl)pyridin-3-yl)ethyl)-2,3,4,9-tetrahydro-2,6-dimethyl-1H-pyrido[3,4-b]indole] | 36 | 64 | 39 | 83 | –
5 | CC(C)CCN(C)C(=O)Cn1c2c(c3cc(Cl)ccc31)CCN(C)C2 [Compound 14, 2-(6-chloro-1,2,3,4-tetrahydro-2-methylpyrido[3,4-b]indol-9-yl)-N-isopentyl-N-methylacetamide] | 12 | 33 | 20 | -16 | –
6 | CN1CCc2c(n(CC(=O)Nc3ccc(F)cc3)c3ccc(Cl)cc23)C1 [Compound 15, 2-(6-chloro-1,2,3,4-tetrahydro-2-methylpyrido[3,4-b]indol-9-yl)-N-(4-fluorophenyl)acetamide] | -3 | 5 | 15 | 8 | –
7 | CN1CCc2c(n(CC(=O)N(C)C)c3ccc(Cl)cc23)C1 [Compound 16, 2-(6-chloro-1,2,3,4-tetrahydro-2-methylpyrido[3,4-b]indol-9-yl)-N,N-dimethylacetamide] | 1 | 2 | -18 | -7 | –
8 | CN1CCc2c(n(CC(=O)NC3CCCCC3)c3ccc(Cl)cc23)C1 [Compound 17, 2-(6-chloro-1,2,3,4-tetrahydro-2-methylpyvrido[3,4-b]indol-9-yl)-N-cyclohexylacetamide] | -6 | 18 | 3 | 14 | –
9 | CN1CCc2c(n(CC(=O)N(C)C3CCCCC3)c3ccc(Cl)cc23)C1 [Compound 18, 2-(6-chloro-1,2,3,4-tetrahydro-2-methylpyrido[3,4-b]indol-9-yl)-N-cyclohexyl-N-methylacetamide] | 7 | 21 | 3 | 19 | –
10 | COC(=O)Cn1c2c(c3cc(C)ccc31)CCN(C)C2 [Compound 21, methyl 2-(1,2,3,4-tetrahydro-2,6-dimethylpyrido[3,4-b]indol-9-yl)acetate] | 2 | -7 | – | 11 | 16
11 | CN1CCc2c(n(CCCc3ccccc3)c3ccc(Cl)cc23)C1 [Compound 29, 6-chloro-2,3,4,9-tetrahydro-2-methyl-9-(3-phenylpropyl)-1H-pyrido[3,4-b]indole] | 60 | 84 | 90 | 79 | –
12 | CN1CCc2c(n(CCN3CCCCC3)c3ccc(Cl)cc23)C1 [Compound 34, 6-chloro-2,3,4,9-tetrahydro-2-methyl-9-(2-(piperidin-1-yl)ethyl)-1H-pyrido[3,4-b]indole] | 20 | 56 | 37 | 38 | –
